Experimental data from PMC4831468, “White collar 1‐induced photolyase expression contributes to UV‐tolerance of Ustilago maydis” (MicrobiologyOpen, 2015).

Legend:
Format in all cases: binding
Phr2 = molecular target: T1, Phr2 (Mycosarcoma maydis, UniProt A0A0D1E060); assay: UV-Vis absorption spectroscopy of copurified chromophore; blue-light photoreduction; conditions: copurified from E. coli; photoreduction with 10 mM DTT, pH 7.5, 15 C
T1 construct: gene UMAG_02144; pET51b, 10xHis- and Strep-tagged, E. coli Rosetta(DE3)
T1 sequence (A0A0D1E060 1-684): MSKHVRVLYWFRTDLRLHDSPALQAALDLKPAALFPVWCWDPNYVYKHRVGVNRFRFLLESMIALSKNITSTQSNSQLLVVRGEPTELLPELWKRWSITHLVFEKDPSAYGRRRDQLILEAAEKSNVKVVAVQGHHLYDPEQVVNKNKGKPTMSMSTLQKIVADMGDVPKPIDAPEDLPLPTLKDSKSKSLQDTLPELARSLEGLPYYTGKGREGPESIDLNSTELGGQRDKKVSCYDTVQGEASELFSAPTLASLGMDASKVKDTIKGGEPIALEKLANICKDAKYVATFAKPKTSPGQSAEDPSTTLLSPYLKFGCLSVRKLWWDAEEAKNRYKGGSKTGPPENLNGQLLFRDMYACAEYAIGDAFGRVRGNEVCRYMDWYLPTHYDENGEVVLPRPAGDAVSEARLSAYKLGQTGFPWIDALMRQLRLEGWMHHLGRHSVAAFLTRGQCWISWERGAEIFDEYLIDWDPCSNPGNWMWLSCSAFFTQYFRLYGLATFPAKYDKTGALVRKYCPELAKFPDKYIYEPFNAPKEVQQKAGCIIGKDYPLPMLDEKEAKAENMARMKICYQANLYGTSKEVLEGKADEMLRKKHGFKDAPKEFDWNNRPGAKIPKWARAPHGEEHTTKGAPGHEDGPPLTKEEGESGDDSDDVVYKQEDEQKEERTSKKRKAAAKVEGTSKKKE

Phr1 [1] = molecular target: T2, Phr1 (Mycosarcoma maydis, UniProt A0A0D1DNG6); assay: as above; conditions: copurified from E. coli; photoreduction with 10 mM DTT, pH 7.5, 15 C
T2 construct: gene UMAG_06079
T2 sequence (A0A0D1DNG6 1-655): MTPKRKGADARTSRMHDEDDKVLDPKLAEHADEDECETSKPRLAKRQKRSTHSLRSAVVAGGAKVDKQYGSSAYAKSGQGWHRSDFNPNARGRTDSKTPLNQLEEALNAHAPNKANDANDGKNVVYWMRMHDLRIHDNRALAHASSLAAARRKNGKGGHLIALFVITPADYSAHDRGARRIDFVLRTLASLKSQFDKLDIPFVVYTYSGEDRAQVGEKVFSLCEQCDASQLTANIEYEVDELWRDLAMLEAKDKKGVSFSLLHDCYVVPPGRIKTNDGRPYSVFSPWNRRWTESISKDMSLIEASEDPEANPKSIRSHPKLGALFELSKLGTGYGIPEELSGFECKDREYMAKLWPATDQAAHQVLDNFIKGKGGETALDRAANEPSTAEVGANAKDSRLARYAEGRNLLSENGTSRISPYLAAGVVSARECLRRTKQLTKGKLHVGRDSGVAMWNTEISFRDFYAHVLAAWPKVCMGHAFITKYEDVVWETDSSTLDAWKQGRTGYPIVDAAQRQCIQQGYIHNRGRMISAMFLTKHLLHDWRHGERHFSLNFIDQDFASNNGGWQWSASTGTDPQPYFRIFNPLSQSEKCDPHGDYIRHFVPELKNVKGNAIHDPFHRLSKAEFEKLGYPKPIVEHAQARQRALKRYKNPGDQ

Cry2 [2] = molecular target: T3, Cry2 (Mycosarcoma maydis, UniProt A0A0D1DUB1); assay: as above; conditions: copurified from E. coli; photoreduction with 10 mM DTT, pH 7.5, 15 C
T3 construct: gene UMAG_05917; pET51b, 10xHis- and Strep-tagged, E. coli Arctic Express
T3 sequence (A0A0D1DUB1 1-623): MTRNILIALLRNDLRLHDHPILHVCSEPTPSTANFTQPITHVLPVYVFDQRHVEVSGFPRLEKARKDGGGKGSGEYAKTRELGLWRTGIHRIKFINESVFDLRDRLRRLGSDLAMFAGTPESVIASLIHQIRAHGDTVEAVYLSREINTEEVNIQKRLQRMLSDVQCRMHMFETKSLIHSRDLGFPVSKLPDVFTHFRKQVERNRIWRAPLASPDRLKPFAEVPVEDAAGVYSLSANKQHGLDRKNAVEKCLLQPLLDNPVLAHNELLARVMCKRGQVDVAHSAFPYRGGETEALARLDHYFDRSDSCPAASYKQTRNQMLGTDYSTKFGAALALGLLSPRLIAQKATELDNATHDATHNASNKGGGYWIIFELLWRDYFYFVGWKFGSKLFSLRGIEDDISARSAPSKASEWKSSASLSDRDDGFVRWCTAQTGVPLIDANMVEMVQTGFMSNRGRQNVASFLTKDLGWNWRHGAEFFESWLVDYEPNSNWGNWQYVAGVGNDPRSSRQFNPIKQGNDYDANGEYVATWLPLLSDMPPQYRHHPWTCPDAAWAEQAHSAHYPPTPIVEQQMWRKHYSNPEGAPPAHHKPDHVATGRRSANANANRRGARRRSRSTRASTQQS

Cry1 = molecular target: T4, Cry1 (Mycosarcoma maydis, UniProt A0A0D1CDQ8); assay: as above; conditions: copurified from E. coli; photoreduction with 10 mM DTT, pH 7.5, 15 C
T4 construct: gene UMAG_01131; pET51b, 10xHis- and Strep-tagged, synthetic cDNA, E. coli BL21(DE3)
T4 sequence (A0A0D1CDQ8 1-881): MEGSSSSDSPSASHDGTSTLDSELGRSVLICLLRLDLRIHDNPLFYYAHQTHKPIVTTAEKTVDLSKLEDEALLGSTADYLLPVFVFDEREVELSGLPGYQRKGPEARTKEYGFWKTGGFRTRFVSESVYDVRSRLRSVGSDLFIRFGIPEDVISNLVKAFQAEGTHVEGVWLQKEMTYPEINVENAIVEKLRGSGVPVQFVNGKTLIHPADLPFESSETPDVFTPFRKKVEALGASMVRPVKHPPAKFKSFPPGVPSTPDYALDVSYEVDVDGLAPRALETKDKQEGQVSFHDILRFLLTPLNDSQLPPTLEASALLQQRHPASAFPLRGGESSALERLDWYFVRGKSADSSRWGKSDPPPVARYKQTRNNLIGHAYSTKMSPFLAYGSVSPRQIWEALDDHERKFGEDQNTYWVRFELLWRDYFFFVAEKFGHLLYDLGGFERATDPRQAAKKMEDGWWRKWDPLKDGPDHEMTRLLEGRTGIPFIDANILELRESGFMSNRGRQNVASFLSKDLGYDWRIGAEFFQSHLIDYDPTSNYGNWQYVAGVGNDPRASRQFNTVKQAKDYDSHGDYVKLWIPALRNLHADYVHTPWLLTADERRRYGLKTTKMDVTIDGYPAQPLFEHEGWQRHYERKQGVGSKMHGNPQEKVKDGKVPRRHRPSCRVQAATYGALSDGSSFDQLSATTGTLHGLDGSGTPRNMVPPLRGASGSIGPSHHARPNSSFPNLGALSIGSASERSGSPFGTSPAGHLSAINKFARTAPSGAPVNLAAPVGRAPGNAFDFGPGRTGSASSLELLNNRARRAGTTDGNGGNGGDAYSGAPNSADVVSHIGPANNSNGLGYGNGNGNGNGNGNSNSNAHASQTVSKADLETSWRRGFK

Cry2 [3] = molecular target: T3, Cry2; assay: UV-Vis absorption spectroscopy of copurified chromophore (about […] nm peak); conditions: copurified from E. coli; antenna chromophore, second site beside FAD; assigned from spectrum only
Phr1 [4] = molecular target: T2, Phr1; assay: as above; conditions: copurified from E. coli; antenna chromophore, second site beside FAD; assigned from spectrum only

Compound | UV-Vis absorption spectroscopy of copurified chromophore; blue-light photoreduct (Phr2) | UV-Vis absorption spectroscopy of copurified chromophore; blue-light photoreduct (Phr1 [1]) | UV-Vis absorption spectroscopy of copurified chromophore; blue-light photoreduct (Cry2 [2]) | UV-Vis absorption spectroscopy of copurified chromophore; blue-light photoreduct (Cry1) | UV-Vis absorption spectroscopy of copurified chromophore (about 380 nm peak) (Cry2 [3]) | UV-Vis absorption spectroscopy of copurified chromophore (about 380 nm peak) (Phr1 [4])
Cc1cc2nc3c(=O)[nH]c(=O)nc-3n(C[C@H](O)[C@H](O)[C@H](O)COP(=O)(O)OP(=O)(O)OC[C@H]3O[C@@H](n4cnc5c(N)ncnc54)[C@H](O)[C@@H]3O)c2cc1C [FAD] | these data proved that all CPF members of U. maydis bind FAD | these data proved that all CPF members of U. maydis bind FAD | these data proved that all CPF members of U. maydis bind FAD | these data proved that all CPF members of U. maydis bind FAD |  | 
Nc1nc2c(c(=O)[nH]1)[N+]1=CN(c3ccc(C(=O)N[C@@H](CCC(=O)O)C(=O)O)cc3)C[C@H]1CN2 [MTHF] |  |  |  |  | Methenyltetrahydrofolate (MTHF) is the second cofactor of Cry2 and Phr1 | Methenyltetrahydrofolate (MTHF) is the second cofactor of Cry2 and Phr1
